According to US4234691A (Yamasa Shoyu Kabushiki Kaisha, priority 1978, dated 1980):

T1: L-lysine α-oxidase (Trichoderma viride, UniProt A0A0G4DCU0)
T1 construct: mature processed form
T1 sequence (A0A0G4DCU0 77-617): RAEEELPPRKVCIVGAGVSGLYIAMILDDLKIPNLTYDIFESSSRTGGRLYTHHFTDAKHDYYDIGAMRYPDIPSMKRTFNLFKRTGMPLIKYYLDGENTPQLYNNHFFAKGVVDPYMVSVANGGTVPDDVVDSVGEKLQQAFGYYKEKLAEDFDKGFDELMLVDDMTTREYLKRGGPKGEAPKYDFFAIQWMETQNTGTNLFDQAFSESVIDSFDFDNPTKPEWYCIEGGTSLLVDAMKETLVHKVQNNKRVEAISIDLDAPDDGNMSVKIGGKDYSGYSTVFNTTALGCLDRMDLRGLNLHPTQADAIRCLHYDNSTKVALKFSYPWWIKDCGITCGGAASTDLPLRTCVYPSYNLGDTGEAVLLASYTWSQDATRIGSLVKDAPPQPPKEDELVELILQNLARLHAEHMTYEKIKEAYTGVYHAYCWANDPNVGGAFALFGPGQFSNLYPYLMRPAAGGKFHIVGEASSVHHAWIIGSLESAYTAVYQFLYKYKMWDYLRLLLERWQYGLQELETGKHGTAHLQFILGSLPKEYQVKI

B1: L-lysine α-oxidase (Trichoderma viride) (protein)
chain: RAEEELPPRKVCIVGAGVSGLYIAMILDDLKIPNLTYDIFESSSRTGGRLYTHHFTDAKHDYYDIGAMRYPDIPSMKRTFNLFKRTGMPLIKYYLDGENTPQLYNNHFFAKGVVDPYMVSVANGGTVPDDVVDSVGEKLQQAFGYYKEKLAEDFDKGFDELMLVDDMTTREYLKRGGPKGEAPKYDFFAIQWMETQNTGTNLFDQAFSESVIDSFDFDNPTKPEWYCIEGGTSLLVDAMKETLVHKVQNNKRVEAISIDLDAPDDGNMSVKIGGKDYSGYSTVFNTTALGCLDRMDLRGLNLHPTQADAIRCLHYDNSTKVALKFSYPWWIKDCGITCGGAASTDLPLRTCVYPSYNLGDTGEAVLLASYTWSQDATRIGSLVKDAPPQPPKEDELVELILQNLARLHAEHMTYEKIKEAYTGVYHAYCWANDPNVGGAFALFGPGQFSNLYPYLMRPAAGGKFHIVGEASSVHHAWIIGSLESAYTAVYQFLYKYKMWDYLRLLLERWQYGLQELETGKHGTAHLQFILGSLPKEYQVKI
notes: mature processed form

tested on: L5178 Y mouse leukemic cells; assay: not given; settings: L5178Y cells, 10^5 cells/ml, 37° C., 48 hours
Description: In this experiment, the antitumor activity in vitro was determined by measuring the proliferation-inhibition activity against the cultured L5178 Y mouse leukemic cells. More specifically, 0.1 ml of the sample diluted with a phosphate-buffered saline (PBS) was added to 0.9 ml of the cultured L5178Y cell suspension (10^5 cells/ml) with the logarithmic growth phase. The mixture was incubated, at 37° C. for 48 hours in a carbon dioxide incubator, and then the number of the cells was measured by means of a microcell counter.

Molecule	Concentration giving complete inhibition of proliferation [mU/ml]
L-lysine α-oxidase	3.3

substrate: NCCC[C@H](N)C(=O)O; assay: purified protein, by the assay type; settings: other: purified enzyme of Example 1

Molecule	Km [µM]
B1	440

target: T1, L-lysine α-oxidase; assay: Substrate specificity, relative enzyme activity by oxygen-electrode method; type: biochemical; settings: purified enzyme
Description: A variety of substrates listed in the following table were subjected to the action of the purified enzyme of the present invention, and the relative enzyme activities thereof were determined according to the oxygen-electrode method.
The activity of the present enzyme was measured in accordance with Soda's method (Analytical Biochemistry Vol. 25, p. 228, 1968) in the following manner. A reaction mixture consisting of 0.7 ml of 0.1 M potassium phosphate buffer (pH 8.0), 0.1 ml of catalase (750 U/ml), 0.1 ml of 0.1 M L-lysine solution and 0.1 ml of the present enzyme solution was incubated at 37° C. for 20 minutes with gentle shaking. After the incubation the reaction was terminated by the addition of 0.1 ml of 25% trichloroacetic acid. To the resulting reaction mixture were added 1.9 ml of 1 M acetate buffer (pH 5.0) and 0.8 ml of 0.1% 3-methyl-2-benzothiazolone hydrazone hydrochloride solution. The mixture was further incubated at 30° C. for 30 minutes and then allowed to cool to room temperature, after which measurement of optical density at 318 nm was carried out. The formed α-keto-ε -aminocaproic acid thus formed was determined from the resulting calibration curve. One unit of the enzyme was defined as the quantity of the enzyme catalyzing the formation of 1 μmol of α-keto-ε-aminocaproic acid at 37° C. per minute. The relative activity of the enzyme was also assayed by manometric and polarographic determination of the oxygen consumption.

Molecule	Activity of the enzyme to the amino acid (in words)
NCCC[C@H](N)C(=O)O [L-Ornithine]	some activities
N=C(N)NCCC[C@H](N)C(=O)O [L-Arginine]	some activities
N[C@@H](Cc1c[nH]cn1)C(=O)O [L-Histidine]	some activities
N[C@@H](Cc1ccccc1)C(=O)O [L-Phenylalanine]	some activities

same assay, conditions: substrate 10 mM, purified enzyme, L-Lysine = 100

Molecule	Relative activity (%)
CSCC[C@H](N)C(=O)O [L-Methionine]	< 0.5
NCCC[C@H](N)C(=O)O [L-Ornithine]	18.2
CC(N)CSC[C@H](N)C(=O)O (stereo partly drawn) [S-(β-Aminopropyl-L-cysteine]	34.8
NCC(O)CC[C@H](N)C(=O)O (some centres unmarked) [δ-Hydroxy-lysine]	37.1
N[C@@H](CSCCc1ccncc1)C(=O)O [S-(β-4-Pyridylethyl)-L-cysteine]	2.7
CC(=O)NCCCC[C@H](N)C(=O)O [ε-N-Acetyl-L-lysine]	< 0.5
NCCCC[C@@H](N)C(=O)O [D-Lysine]	< 0.5
N[C@@H](CC(=O)O)C(=O)O [L-Aspartic acid]	< 0.5
NCCSC[C@H](N)C(=O)O [S-(β-Aminoethyl)-L-cysteine]	9.8
N=C(N)NCCC[C@H](N)C(=O)O [L-Arginine]	6.1
N[C@@H](Cc1c[nH]c2ccccc12)C(=O)O [L-Tryptophan]	< 0.5
N[C@@H](Cc1c[nH]cn1)C(=O)O [L-Histidine]	3.8
NCCCCN [Putrescine]	< 0.5
NCCCCCC(N)C(=O)O (racemic) [D,L-Homolysine]	31.1
O=C(O)[C@@H]1CCCN1 [L-Proline]	< 0.5
NC(=O)NCCC[C@H](N)C(=O)O [L-Citrulline]	< 0.5
N[C@@H](CCC(=O)O)C(=O)O [L-Glutamic acid]	< 0.5
CC(C)C[C@H](N)C(=O)O [L-Leucine]	< 0.5
NCCCC[C@H](N)C(=O)O [L-Lysine]	100.0

Molecule	Relative activity (%)
N[C@@H](Cc1ccccc1)C(=O)O [L-Phenylalanine]	8.3
NC(=O)CC[C@H](N)C(=O)O [L-Glutamine]	< 0.5
N[C@@H](CO)C(=O)O [L-Serine]	< 0.5
CCOC(=O)[C@@H](N)CCCCN [L-Lysine ethyl ester]	83.3
C[C@@H](O)[C@H](N)C(=O)O [L-Threonine]	< 0.5
NCCCCC(=O)O [δ-Aminovareric acid]	< 0.5
NCC(N)C(=O)O (stereo not drawn) [α,β-Diaminopropionic acid]	< 0.5
CC(C)[C@H](N)C(=O)O [L-Valine]	< 0.5
NC(=O)C[C@H](N)C(=O)O [L-Asparagine]	< 0.5
C[C@H](N)C(=O)O [L-Alanine]	< 0.5
N[C@@H](CS)C(=O)O [L-Cysteine]	< 0.5
NC(=O)NCCCC[C@H](N)C(=O)O [Homocitrulline]	< 0.5
NCCCCCN [Cadaverine]	< 0.5
NCC(=O)O [L-Glycine]	< 0.5
O=C(O)[C@@H]1C[C@@H](O)CN1 [L-Hydroxyproline]	< 0.5
NCCCCCC(=O)O [ε-Aminocaproic acid]	< 0.5
CC[C@H](C)[C@H](N)C(=O)O [L-Isoleucine]	< 0.5
NCCC(N)C(=O)O (centres unmarked) [2,4-Diaminobutyric acid]	< 0.5
NCCCC[C@H](N)C(=O)NO [L-Lysine hydroxamate]	62.1

target: T1, L-lysine α-oxidase; assay: Enzyme activity in the presence of metallic ions and additives (inhibition, activation, stabilization); type: biochemical; settings: not given
Description: The enzyme activity was measured in the presence of various metallic ions and various additives. The activator has not been found. The enzyme was stabilized by sodium chloride, potassium chloride, phosphates and the like.

Molecule	Stabilization of the enzyme (in words)	Relative activity (%) in presence of inhibitors [%]
[Cl-].[K+] [potassium chloride]	stabilized	–
[Cl-].[Na+] [sodium chloride]	stabilized	–
N[C@@H](CCC(=O)N[C@@H](CS)C(=O)NCC(=O)O)C(=O)O [Glutathione]	–	103.5
O=C(O)CN(CCN(CC(=O)O)CC(=O)O)CC(=O)O [EDTA, Ethylenediaminetetraacetic acid]	–	93.8
phosphates	stabilized	–

same assay, conditions: enzyme activity measured in presence of the additive

Molecule	Effect on enzyme activity (in words)
O=C(O)c1cc[c]([Hg][Cl])cc1 [PCMB, para-Chloromercuribenzoic acid]	inhibited
[Cl][Hg][Cl] [Mercuric chloride]	inhibited
[Cu+2] [Cu]	inhibited

same assay, conditions: inhibitor concentration not given

Molecule	Relative activity (%) in presence of inhibitors [%]
O=S(=O)(O)c1cc(O)c(O)c(S(=O)(=O)O)c1 [Tiron]	96.5
O=C(O)c1cc[c]([Hg][Cl])cc1 [PCMB, para-Chloromercuribenzoic acid]	42.9
N[C@@H](CS)C(=O)O [Cysteine]	100.3
[Cl][Hg][Cl] [Mercuric chloride]	19.2
CCN1C(=O)C=CC1=O [N-Ethylmaleimide]	108.7

same assay, conditions: metallic ions 1mM

Molecule	Relative activity (%) in presence of metallic ions [%]
[K+] [K]	100.0
[Ba+2] [Ba]	100.0
[Mg+2] [Mg]	99.6
[Zn+2] [Zn]	92.7
[Mn+2] [Mn]	97.1
[Cu+2] [Cu]	78.5
[Li+] [Li]	98.4
[Co+2] [Co]	91.6
[Ca+2] [Ca]	102.5

substrate: N[C@@H](Cc1ccccc1)C(=O)O; assay: Km values of the enzyme for amino acids; type: biochemical, Trichoderma viride; settings: other: purified enzyme of Example 1

Molecule	Km [M]
B1	0.014

substrate: NCCCC[C@H](N)C(=O)O; assay: Km values of the enzyme for amino acids; type: biochemical, Trichoderma viride; settings: other: purified enzyme of Example 1

Molecule	Km [µM]
B1	40
